According to PubChem BioAssay AID1053177 (The Scripps Research Institute Molecular Screening Center, 2014):
Active and inactive are the calls of the source.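 How the source made its calls: active means EC50 of 10 µM or lower; inactive means EC50 above 10 µM.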

Target: Trace amine-associated receptor 1 (Homo sapiens) (UniProt Q96RJ0)
Assay: TAAR1 agonists raising cellular cAMP, late-stage follow-up, cell-based, fluorescence, human, MDRUN002 (AID 1053177)
Conditions: CHO TAAR1-HGA16 cells, cAMP TR-FRET, agonist

Trace amine-associated receptor 1 (Homo sapiens), sequence (Q96RJ0 whole entry, looked up): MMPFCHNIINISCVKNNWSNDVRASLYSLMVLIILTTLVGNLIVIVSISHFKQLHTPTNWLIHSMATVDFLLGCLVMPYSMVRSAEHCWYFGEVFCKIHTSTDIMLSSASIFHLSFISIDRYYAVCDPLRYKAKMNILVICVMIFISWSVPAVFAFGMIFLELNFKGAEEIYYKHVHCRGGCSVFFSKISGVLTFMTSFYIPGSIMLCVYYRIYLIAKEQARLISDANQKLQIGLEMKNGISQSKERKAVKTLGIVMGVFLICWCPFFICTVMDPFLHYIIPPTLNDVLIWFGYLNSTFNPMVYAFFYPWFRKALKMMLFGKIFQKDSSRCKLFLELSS

| SMILES | EC50 |
| --- | --- |
| COc1cc(C(=O)CCN2CCC(c3ccccc3)C2)cc(OC)c1OC (configuration not stated) | 131 nM |
| O=C(CCN1CCC(c2ccccc2)C1)c1ccccc1 (configuration not stated) | 97.3 nM |
| CC(CN1CCCC1Cc1ccccc1)C(=O)c1ccc2c(c1)OCCO2 (configuration not stated) | 438 nM |
| Cc1ccc(C(=O)CCN2CCC(c3ccccc3)C2)cc1 (configuration not stated) | 335 nM |

Results, then the compound that gave them:

| EC50 | SMILES |
| --- | --- |
| > 37400 nM (inactive) | N#Cc1c(C(F)(F)F)cc(-c2ccc(Cl)cc2)nc1SCC(=O)N1CCCCCC1 |
| > 37400 nM (inactive) | N#Cc1c(C(F)(F)F)cc(-c2ccc(Cl)cc2)nc1SCC(=O)Nc1ncccn1 |
| > 37400 nM (inactive) | N#Cc1c(C(F)(F)F)cc(-c2ccc(Cl)cc2)nc1SCC(=O)N1CCCC1 |
